Laboratory results: ChEMBL document CHEMBL1201862, “PubChem BioAssay data set” (2004)
Active and inactive are the calls of the source.

Legend:
Assay type in all cases: functional
[1] = biological target: Receptor-type tyrosine-protein kinase FLT3 (Homo sapiens, UniProt P36888);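 further: FLT3 was tested as one member of a kinome-wide kinase panel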
[2] = biological target: Calcium/calmodulin-dependent protein kinase type II subunit delta (Homo sapiens, UniProt Q13557)
[3] = biological target: Receptor tyrosine-protein kinase erbB-2 (Homo sapiens, UniProt P04626); experiment: Navigating the Kinome. Panel member name: ERBB2
[4] = biological target: Serine/threonine-protein kinase PAK 4 (Homo sapiens, UniProt O96013);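 further: value obtained within a kinome profiling panel in which PAK4 was one of the panel members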
Ephrin type-A receptor 2 = Ephrin type-A receptor 2 (Homo sapiens, UniProt P29317);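 further: EPHA2 tested as one member of a kinome-wide kinase panel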
[5] = biological target: Tyrosine-protein kinase receptor UFO (Homo sapiens, UniProt P30530)
[6] = biological target: T1, Tyrosine-protein kinase JAK3 (Homo sapiens, UniProt P52333)
T1 sequence (P52333 whole entry): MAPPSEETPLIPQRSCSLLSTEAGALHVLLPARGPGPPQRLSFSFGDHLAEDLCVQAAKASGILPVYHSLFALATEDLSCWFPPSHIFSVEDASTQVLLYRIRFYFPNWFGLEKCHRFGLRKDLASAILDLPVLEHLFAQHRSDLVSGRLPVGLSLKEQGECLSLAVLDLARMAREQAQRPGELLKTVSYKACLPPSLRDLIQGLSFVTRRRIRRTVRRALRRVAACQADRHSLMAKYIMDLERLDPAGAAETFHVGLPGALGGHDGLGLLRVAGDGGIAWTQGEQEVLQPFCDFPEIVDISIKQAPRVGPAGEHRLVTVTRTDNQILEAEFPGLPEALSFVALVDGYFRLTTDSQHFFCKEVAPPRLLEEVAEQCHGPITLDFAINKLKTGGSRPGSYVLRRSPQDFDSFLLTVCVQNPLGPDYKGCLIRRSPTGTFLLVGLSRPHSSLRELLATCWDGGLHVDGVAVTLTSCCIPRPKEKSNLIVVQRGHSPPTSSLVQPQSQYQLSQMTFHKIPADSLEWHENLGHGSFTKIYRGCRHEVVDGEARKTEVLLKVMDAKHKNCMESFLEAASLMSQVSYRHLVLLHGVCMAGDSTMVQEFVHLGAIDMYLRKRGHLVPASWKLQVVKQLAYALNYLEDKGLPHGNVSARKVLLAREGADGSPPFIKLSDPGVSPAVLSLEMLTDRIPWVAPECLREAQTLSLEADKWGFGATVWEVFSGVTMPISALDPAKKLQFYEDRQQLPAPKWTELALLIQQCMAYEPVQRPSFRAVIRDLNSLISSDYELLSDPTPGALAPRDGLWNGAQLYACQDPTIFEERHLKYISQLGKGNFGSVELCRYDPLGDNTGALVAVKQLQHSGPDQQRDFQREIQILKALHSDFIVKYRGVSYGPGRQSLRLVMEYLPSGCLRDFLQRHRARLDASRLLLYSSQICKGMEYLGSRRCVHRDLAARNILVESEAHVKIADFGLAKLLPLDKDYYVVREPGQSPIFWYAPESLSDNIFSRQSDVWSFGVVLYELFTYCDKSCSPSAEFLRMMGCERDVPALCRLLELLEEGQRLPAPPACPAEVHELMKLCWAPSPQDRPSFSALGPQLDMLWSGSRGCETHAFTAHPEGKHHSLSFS

[7] = biological target: Death-associated protein kinase 3 (Homo sapiens, UniProt O43293);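 further: measured as one member of a kinome-wide profiling panel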
[8] = biological target: Serine/threonine-protein kinase D2 (Homo sapiens, UniProt Q9BZL6);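 further: measured against PRKD2 as one member of a kinome-wide kinase profiling panel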
[9] = biological target: Cyclin-dependent kinase 1 (Homo sapiens, UniProt P06493);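 further: Kinome-wide panel profiling, with the target listed as panel member CDC2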
[10] = biological target: Vascular endothelial growth factor receptor 2 (Homo sapiens, UniProt P35968)
[11] = biological target: Cyclin-dependent kinase 5 (Homo sapiens, UniProt Q00535);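 further: CDK5 measured as one member of a kinase profiling panel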
[12] = biological target: Casein kinase II subunit alpha (Homo sapiens, UniProt P68400)
[13] = biological target: Serine/threonine-protein kinase Nek2 (Homo sapiens, UniProt P51955)
[14] = biological target: Non-receptor tyrosine-protein kinase TYK2 (Homo sapiens, UniProt P29597)
[15] = biological target: Serine/threonine-protein kinase N2 (Homo sapiens, UniProt Q16513)
[16] = biological target: Fibroblast growth factor receptor 3 (Homo sapiens, UniProt P22607)
[17] = biological target: Vascular endothelial growth factor receptor 3 (Homo sapiens, UniProt P35916);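 further: value from a kinome-wide profiling panel, with FLT4 as the panel member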
[18] = biological target: Serine/threonine-protein kinase Chk2 (Homo sapiens, UniProt O96017);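 further: CHEK2 entry within a kinome-wide screening panel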
[19] = biological target: Macrophage colony-stimulating factor 1 receptor (Homo sapiens, UniProt P07333);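 further: value comes from the Navigating the Kinome screening panel, CSF1R member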
[20] = biological target: MAP kinase-activated protein kinase 3 (Homo sapiens, UniProt Q16644);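 further: value comes from a kinome-wide profiling panel in which MAPKAPK3 is one of the panel members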
[21] = biological target: Fibroblast growth factor receptor 1 (Homo sapiens, UniProt P11362)
[22] = biological target: T2, Interleukin-1 receptor-associated kinase 4 (Homo sapiens, UniProt Q9NWZ3)
T2 sequence (Q9NWZ3 whole entry): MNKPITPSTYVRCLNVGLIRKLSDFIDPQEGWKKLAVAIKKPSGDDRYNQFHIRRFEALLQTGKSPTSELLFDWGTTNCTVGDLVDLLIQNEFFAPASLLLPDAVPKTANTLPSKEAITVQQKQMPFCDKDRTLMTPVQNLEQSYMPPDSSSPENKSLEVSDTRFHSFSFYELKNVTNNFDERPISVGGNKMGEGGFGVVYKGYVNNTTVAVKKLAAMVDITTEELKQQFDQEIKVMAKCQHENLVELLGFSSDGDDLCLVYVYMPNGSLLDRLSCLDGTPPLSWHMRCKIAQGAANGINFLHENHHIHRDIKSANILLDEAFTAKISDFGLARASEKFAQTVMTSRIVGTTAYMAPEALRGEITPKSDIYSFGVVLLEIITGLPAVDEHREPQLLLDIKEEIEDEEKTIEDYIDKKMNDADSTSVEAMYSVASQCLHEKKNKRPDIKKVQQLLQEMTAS

[23] = biological target: RAC-alpha serine/threonine-protein kinase (Homo sapiens, UniProt P31749);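 further: AKT1 affinity measured as one member of a kinome-wide kinase profiling panel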

Macrophage colony-stimulating factor 1 receptor, sequence (P07333 whole entry): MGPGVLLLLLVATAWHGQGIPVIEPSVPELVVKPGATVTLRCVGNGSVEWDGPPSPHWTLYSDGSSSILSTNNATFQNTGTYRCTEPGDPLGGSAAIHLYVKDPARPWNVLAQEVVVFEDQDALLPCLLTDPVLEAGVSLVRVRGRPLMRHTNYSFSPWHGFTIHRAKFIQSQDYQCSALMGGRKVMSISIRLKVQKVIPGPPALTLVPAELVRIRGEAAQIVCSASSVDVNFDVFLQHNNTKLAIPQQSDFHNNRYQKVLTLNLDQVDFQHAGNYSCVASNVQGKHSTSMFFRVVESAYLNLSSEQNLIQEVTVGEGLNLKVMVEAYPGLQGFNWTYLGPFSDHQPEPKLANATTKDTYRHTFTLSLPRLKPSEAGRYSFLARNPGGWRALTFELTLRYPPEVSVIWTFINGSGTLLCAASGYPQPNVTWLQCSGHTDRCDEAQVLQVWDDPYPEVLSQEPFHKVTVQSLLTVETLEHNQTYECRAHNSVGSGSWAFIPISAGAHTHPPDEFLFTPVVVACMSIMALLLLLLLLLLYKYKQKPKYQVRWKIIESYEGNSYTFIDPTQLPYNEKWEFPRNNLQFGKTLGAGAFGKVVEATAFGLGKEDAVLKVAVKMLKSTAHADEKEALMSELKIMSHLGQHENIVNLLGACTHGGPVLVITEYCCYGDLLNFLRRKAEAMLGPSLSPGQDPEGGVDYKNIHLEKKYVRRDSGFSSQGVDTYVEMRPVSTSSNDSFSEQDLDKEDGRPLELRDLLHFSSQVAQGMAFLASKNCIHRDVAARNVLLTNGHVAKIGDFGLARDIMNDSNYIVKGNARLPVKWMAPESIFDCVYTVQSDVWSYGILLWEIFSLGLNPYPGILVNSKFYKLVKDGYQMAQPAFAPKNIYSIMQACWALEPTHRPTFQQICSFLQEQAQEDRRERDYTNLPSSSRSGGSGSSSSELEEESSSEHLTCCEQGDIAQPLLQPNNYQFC
Receptor-type tyrosine-protein kinase FLT3, sequence (P36888 whole entry): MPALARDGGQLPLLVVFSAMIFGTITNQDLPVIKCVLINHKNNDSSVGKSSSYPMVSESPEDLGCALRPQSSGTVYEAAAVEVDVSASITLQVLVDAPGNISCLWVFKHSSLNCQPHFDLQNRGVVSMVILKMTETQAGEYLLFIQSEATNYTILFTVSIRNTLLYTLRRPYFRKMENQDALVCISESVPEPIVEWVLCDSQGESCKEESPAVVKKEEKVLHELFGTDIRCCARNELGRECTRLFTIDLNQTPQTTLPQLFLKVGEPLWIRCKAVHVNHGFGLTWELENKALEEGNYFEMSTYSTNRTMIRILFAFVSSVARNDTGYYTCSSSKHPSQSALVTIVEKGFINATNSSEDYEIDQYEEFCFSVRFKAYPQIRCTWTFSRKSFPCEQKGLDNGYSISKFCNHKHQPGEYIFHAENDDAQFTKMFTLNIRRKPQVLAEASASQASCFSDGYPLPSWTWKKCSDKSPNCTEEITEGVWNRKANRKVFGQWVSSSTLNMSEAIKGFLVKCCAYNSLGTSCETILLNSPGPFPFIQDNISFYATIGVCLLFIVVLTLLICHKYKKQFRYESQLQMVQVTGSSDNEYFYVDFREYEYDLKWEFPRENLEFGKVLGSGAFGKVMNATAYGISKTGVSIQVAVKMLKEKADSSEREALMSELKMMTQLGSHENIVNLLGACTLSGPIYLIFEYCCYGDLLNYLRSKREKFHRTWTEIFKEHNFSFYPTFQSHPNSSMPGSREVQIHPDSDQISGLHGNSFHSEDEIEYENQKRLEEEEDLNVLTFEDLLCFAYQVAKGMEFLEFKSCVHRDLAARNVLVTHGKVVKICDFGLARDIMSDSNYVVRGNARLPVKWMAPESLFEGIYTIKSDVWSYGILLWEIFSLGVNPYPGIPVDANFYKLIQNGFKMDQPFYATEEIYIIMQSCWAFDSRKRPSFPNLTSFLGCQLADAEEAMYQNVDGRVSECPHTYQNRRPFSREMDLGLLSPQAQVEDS
Death-associated protein kinase 3, sequence (O43293 whole entry): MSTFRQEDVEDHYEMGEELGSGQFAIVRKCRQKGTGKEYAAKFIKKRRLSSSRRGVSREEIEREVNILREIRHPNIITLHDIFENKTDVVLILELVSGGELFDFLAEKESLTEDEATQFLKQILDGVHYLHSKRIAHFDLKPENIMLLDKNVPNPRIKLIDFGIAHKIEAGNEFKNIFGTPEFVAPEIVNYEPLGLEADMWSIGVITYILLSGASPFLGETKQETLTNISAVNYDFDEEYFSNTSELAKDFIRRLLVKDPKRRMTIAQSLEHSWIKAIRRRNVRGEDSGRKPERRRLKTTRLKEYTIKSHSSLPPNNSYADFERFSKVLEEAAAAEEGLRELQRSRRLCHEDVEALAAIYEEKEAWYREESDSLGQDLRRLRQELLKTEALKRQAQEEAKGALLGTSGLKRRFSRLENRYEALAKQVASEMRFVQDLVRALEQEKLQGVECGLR
Cyclin-dependent kinase 1, sequence (P06493 whole entry): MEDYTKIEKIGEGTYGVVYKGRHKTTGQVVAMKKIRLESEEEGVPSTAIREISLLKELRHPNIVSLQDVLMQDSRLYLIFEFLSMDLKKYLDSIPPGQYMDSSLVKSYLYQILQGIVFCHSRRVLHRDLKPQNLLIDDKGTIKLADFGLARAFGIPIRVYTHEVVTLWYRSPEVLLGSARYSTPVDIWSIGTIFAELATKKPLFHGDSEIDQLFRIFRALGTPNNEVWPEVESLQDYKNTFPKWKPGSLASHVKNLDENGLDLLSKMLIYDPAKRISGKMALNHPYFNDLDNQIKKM
Vascular endothelial growth factor receptor 3, sequence (P35916 whole entry): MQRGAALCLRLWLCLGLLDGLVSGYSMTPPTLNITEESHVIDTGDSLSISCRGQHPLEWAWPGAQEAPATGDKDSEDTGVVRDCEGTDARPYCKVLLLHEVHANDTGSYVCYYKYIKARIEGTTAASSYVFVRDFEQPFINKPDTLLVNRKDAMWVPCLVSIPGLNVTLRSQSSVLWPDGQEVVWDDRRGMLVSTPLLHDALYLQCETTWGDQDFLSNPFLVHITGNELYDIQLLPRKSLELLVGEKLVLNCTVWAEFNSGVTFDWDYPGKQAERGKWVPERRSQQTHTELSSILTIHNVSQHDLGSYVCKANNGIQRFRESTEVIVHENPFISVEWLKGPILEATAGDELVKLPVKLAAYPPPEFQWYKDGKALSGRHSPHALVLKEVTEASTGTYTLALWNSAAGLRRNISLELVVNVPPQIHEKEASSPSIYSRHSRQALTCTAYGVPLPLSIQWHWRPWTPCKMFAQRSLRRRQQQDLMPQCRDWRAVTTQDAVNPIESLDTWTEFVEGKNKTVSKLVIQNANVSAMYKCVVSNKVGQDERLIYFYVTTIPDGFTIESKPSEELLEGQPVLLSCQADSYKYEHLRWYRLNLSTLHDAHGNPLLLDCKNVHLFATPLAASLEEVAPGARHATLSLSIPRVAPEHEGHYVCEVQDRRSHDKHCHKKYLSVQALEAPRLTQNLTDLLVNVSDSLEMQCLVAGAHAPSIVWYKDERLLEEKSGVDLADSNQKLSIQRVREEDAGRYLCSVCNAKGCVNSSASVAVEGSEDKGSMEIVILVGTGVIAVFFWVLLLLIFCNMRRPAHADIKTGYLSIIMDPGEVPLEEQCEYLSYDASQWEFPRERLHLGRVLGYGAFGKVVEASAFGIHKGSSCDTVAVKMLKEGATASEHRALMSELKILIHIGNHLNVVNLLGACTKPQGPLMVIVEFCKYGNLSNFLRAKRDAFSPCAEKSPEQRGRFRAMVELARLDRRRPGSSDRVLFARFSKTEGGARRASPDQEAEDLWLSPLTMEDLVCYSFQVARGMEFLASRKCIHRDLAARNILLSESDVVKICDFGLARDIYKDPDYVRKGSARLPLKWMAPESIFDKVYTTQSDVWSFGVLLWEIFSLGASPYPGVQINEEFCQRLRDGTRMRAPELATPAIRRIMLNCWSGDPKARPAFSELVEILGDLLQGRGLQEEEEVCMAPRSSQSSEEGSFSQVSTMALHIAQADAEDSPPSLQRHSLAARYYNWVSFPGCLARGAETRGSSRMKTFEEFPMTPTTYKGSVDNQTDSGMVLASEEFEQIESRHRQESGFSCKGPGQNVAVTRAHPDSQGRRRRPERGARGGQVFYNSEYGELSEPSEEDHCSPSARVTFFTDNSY
Serine/threonine-protein kinase D2, sequence (Q9BZL6 whole entry): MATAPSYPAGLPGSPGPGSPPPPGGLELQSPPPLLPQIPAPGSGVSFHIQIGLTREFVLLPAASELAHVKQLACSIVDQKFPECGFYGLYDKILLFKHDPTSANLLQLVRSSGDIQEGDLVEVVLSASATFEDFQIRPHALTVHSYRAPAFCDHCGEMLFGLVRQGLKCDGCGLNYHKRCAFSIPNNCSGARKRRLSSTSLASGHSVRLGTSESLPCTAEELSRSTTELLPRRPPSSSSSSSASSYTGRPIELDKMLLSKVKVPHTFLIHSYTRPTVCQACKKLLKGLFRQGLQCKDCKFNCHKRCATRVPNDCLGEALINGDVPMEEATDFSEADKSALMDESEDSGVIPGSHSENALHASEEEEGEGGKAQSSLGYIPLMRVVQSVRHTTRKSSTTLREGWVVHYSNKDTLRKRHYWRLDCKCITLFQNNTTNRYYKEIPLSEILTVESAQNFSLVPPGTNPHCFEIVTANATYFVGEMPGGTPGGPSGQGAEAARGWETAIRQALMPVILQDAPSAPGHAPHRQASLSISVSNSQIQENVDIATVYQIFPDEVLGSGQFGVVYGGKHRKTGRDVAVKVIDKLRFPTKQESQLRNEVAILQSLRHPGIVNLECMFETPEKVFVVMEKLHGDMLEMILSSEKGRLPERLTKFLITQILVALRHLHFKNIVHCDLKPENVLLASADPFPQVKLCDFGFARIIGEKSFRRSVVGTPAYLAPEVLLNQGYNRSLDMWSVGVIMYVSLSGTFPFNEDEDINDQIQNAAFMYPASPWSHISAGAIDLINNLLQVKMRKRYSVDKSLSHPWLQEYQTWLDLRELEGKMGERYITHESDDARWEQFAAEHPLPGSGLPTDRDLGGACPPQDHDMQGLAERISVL

In the case of Cc1n[nH]c2cnc(-c3cncc(OCC(N)Cc4cccc(C(F)(F)F)c4)c3)cc12 (centres undefined), the Ki [1] is reported as 1580 nM (active), the Ki [2] is reported as 5.01 nM (active) and the Ki [3] is reported as > 1580 nM (inactive). For the same molecule, the Ki [4] was 398 nM (active), the Ki (Ephrin type-A receptor 2) was > 3160 nM (inactive) and the Ki [5] was > 2000 nM (inactive). For the same molecule, the Ki [6] was 1260 nM (active), the Ki [7] was 3.98 nM (active) and the Ki [8] was 251 nM (active). For the same molecule, the Ki [9] was 31.6 nM (active), the Ki [10] was > 7940 nM (inactive) and the Ki [11] was 63.1 nM (active). The Ki [12] was 794 nM (active), the Ki [13] was > 10000 nM (inactive) and the Ki [14] was > 2000 nM (inactive). The Ki [15] was 25.1 nM (active), the Ki [16] was > 2000 nM (inactive) and the Ki [17] was 3160 nM (active). The Ki [18] was 79.4 nM (active), the Ki [19] was > 2510 nM (inactive) and the Ki [20] was > 10000 nM (inactive). The Ki [21] was > 5010 nM (inactive) and the Ki [22] was 398 nM (active).
Cc1c(C=O)c(O)n2c(nc3ccccc32)c1C#N was tested, and the Ki [1] was 631 nM (active), the Ki [3] was > 1580 nM (inactive) and the Ki [4] was > 5010 nM (inactive). For the same molecule, the Ki (Ephrin type-A receptor 2) was > 3160 nM (inactive), the Ki [6] was 100 nM (active) and the Ki [7] was 1000 nM (active). The Ki [8] was > 10000 nM (inactive), the Ki [9] was > 7940 nM (inactive) and the Ki [10] was > 7940 nM (inactive). For the same molecule, the Ki [11] was > 10000 nM (inactive), the Ki [12] was 63.1 nM (active) and the Ki [13] was > 10000 nM (inactive). The Ki [23] was > 7940 nM (inactive), the Ki [14] was > 2000 nM (inactive) and the Ki [16] was > 2000 nM (inactive). The Ki [17] was 794 nM (active), the Ki [18] was > 10000 nM (inactive) and the Ki [19] was > 2510 nM (inactive). The Ki [20] was > 10000 nM (inactive), the Ki [21] was > 5010 nM (inactive) and the Ki [22] was 3980 nM (active).
